This assay has as its target Substance-P receptor (Homo sapiens, UniProt P25103). The assay is described as follows: Receptor Binding Assay: The buffer solution for the receptor binding test was dispensed to the wells of a 96-well assay plate (Greiner) at 22.5 μL/well. DMSO solutions of a test compound, which were prepared at an 80-time higher concentration using 100% dimethyl sulfoxide (DMSO), were added to the wells at 2.5 μL/well (final concentrations of 1 nM to 100 nM), and the solutions were mixed. As a radiolabeled ligand, 125I-substance P (Substance P, [125I]Tyr8-, PerkinElmer) was used. 125I-substance P was diluted with the buffer solution for the receptor binding test to a concentration resulting in 125 pmol/25 μL/well and added to the 96-well assay plate, and the solutions were mixed. The membrane fraction prepared from the human NK1 receptor-expressing cells was diluted with the buffer solution for the receptor binding test to a concentration resulting in 8 to 10 μg/well, suspended until the suspension became in such a homogenous state that the suspension could flow through a 27 G injection needle smoothly and then added to the 96-well assay plate at 150 μL/well. Then, the plate was incubated at room temperature for 60 minutes while shaking the plate. […].

Structures are written as SMILES.

For orientation: IC50 means the concentration that inhibits the measured activity by half.

Chain of Substance-P receptor (P25103 whole entry): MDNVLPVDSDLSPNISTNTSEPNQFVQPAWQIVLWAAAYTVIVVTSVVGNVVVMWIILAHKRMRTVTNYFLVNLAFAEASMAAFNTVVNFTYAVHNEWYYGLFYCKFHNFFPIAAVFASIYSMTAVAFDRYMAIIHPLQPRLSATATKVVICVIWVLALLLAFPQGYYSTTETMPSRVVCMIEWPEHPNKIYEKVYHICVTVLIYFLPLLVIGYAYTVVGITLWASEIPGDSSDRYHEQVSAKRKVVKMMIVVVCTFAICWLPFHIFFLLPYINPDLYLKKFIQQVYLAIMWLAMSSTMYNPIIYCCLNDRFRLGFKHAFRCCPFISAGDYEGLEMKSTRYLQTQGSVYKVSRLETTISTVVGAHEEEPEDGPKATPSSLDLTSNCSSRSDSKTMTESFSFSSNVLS

With `Cc1cc(F)ccc1-c1cc(C2CCC(CC(=O)O)CC2)nc(Cl)c1N(C)C(=O)C(C)(C)c1cc(C(F)(F)F)cc(C(F)(F)F)c1` (stereo unspecified), the IC50 was 5.51 nM. That is a single-digit nanomolar value.
